According to ChEMBL document CHEMBL1156829 (Proc Natl Acad Sci U S A, 2008):

Assays:
Plasmodium falciparum [1] = assay: NOVARTIS: Inhibition of Plasmodium falciparum 3D7 (drug-susceptible) proliferation in erythrocyte-based infection assay; assay type: functional, organism-based; conditions: Plasmodium falciparum, 3D7
Plasmodium falciparum [2] = assay: NOVARTIS: Inhibition of Plasmodium falciparum W2 (drug-resistant) proliferation in erythrocyte-based infection assay; assay type: functional, organism-based; conditions: Plasmodium falciparum, W2; read-out: EC50
[3] = NOVARTIS: Cytotoxicity against human hepatocellular carcinoma cell line (Huh7); assay type: toxicity, cell-based, Huh-7; conditions: Huh7 cells (hepatocellular carcinoma cell line)

SMILES	EC50 (Plasmodium falciparum [1]) [nM]	EC50 (Plasmodium falciparum [2]) [nM]	CC50 [3] [nM]
CC=C[C@H]1O[C@@](O)([C@@H](C)C(O)C(C)[C@H]2OC(=O)C(OC)=CC(C)=C[C@@H](C)[C@@H](O)[C@@H](C)[C@@H](O)C(C)CC(C)=CC=C[C@@H]2OC)C[C@@H](O[C@H]2C[C@@H](O)[C@H](OC(N)=O)[C@@H](C)O2)[C@@H]1C (stereo partly specified)	> 1670	240	> 10000
CN1CCN(c2ccc(Nc3ccnc4ccccc34)cc2)CC1	220	237	> 10000
FC(F)(F)c1cccc(-c2cc(NCCCn3ccnc3)nc(-c3ccncc3)n2)c1	204	186	> 7720
Nc1ccc(-c2nc3cc(-c4ccc5[nH]c(-c6ccc(N)cc6)nc5c4)ccc3[nH]2)cc1	579	234	> 10000
CC(=O)CSc1nnc(-c2ccncc2)n1C	> 1250	310	> 12700
O=C(O)Cn1cnc2nc3n(c2c1=O)CCC3	> 10400	2420	> 100000
Oc1cccc(Nc2nc(NCc3ccco3)c3ccccc3n2)c1	275	279	11500
N=c1n(CCN2CCCC2)c2ccccc2n1CC(O)c1ccc(Cl)c(Cl)c1 (stereo unspecified)	83	257	10900
O=C(NC(c1ccccc1)c1ccccc1)N(Cc1ccccc1)CC(O)CN(CCN1CCOCC1)S(=O)(=O)Cc1ccccc1 (stereo unspecified)	115	162	> 6820
CCOC(=O)NN=CC=NNC(=O)OCC	199	235	> 10000
CCC(c1nc2ccccc2c(=O)n1-c1ccc(Cl)cc1C)N(CCc1ccccc1)C(=O)c1cccc(OC)c1 (stereo unspecified)	519	232	> 10000
CCC(SC1=Nc2ccccc2C2=NC(C(C)C)C(=O)N12)C(=O)Nc1cccc(C)c1 (stereo unspecified)	7020	2400	> 100000
Cc1cc(O)ccc1-c1cnc2ccccc2n1	> 541	241	> 10000
O=C1CC(c2nc3ccccc3n2CCCOc2ccccc2)CN1c1ccc(F)cc1 (stereo unspecified)	> 882	239	> 10000
N#Cc1ccccc1Cn1nc(-c2cccnc2)oc1=O	> 12500	2380	> 100000
COc1ccc(-c2cc(C3CCN(c4nc(N)c5cc(OC)c(OC)cc5n4)CC3)n[nH]2)cc1OC	202	379	16400
COC(=O)c1cnn(-c2ccccc2)c1C=NOC(=O)c1ccccc1	> 5290	2380	> 100000
CSc1nnc(CCNC(=O)c2c(-c3ccccc3)noc2C)n1-c1ccc(F)cc1	> 12500	2410	> 100000
Cc1nc(NN=Cc2ccccc2O)cc(N2CCCCC2)n1	1080	237	> 10000
COC(=O)C1=CN(Cc2ccc(Cl)cc2)C=C(C(=O)OC)C1c1ccc(Cl)c(Cl)c1	> 8190	2360	> 100000
Brc1ccc(-c2n(Cc3ccccc3)c3ccccc3[n+]2Cc2ccccc2)o1	167	260	11000
Cc1ccc(-c2nc(CS(=O)(=O)CC(=O)NC3CCC(C)CC3)c(C)o2)cc1 (stereo unspecified)	> 1250	> 244	> 10000
CCCCN1C=Nc2cc(C(=O)NCc3ccc(OC)cc3)ccc2C1	463	243	> 10000
Clc1ccccc1-c1nc([P+](c2ccccc2)(c2ccccc2)c2ccccc2)c(N2CCOCC2)o1	350	238	10100
CN(c1ccccc1)S(=O)(=O)c1ccc(C(=O)Nc2ccc(-c3nc4ccccc4[nH]3)cc2)cc1	788	1040	42800
COc1cc(OC)cc(-n2nc(C(=O)NCCCN3CC(C)CC(C)C3)c3ccccc3c2=O)c1 (stereo unspecified)	> 12500	2440	> 100000

SMILES	EC50 (Plasmodium falciparum [1]) [nM]	EC50 (Plasmodium falciparum [2]) [nM]	CC50 [3] [nM]
COc1ccc(S(=O)(=O)Nc2ccc(N3CCC(Cc4ccccc4)CC3)c(C(=O)NC(C)C)c2)cc1	2120	2430	> 100000
Cc1ccc(N2CCN(CCNCc3ccc(F)cc3)[C@@H](Cc3ccc(O)cc3)C2)cc1	443	240	> 10000
Cc1oc(-c2cccs2)nc1CN1CCC(CO)(CCOc2ccccc2)CC1	8470	2350	> 100000
O=C(Nc1ccc(C2=NCCN2)c(Cl)c1)c1ccc(C(=O)Nc2ccc(C3=NCCN3)c(Cl)c2)cc1	554	234	> 10000
Cc1ccc(-c2c[n+](Cc3cccc(C)c3)c3n2CCC3)cc1	568	493	20600
O=c1ccc2cc(Cl)c(O)c(Cl)c2o1	> 1250	> 234	> 10000
CCCCCCCCCC[n+]1c(C)n(CC)c2cc(Cl)c(Cl)cc21	613	490	21000
COC(=O)C1=CNC=C(C(=O)OC)C1c1cc(OC)c(OC)cc1OC	> 1350	245	> 10000
COc1cccc(NCC(O)Cn2c3ccc(Cl)cc3c3cc(Cl)ccc32)c1 (stereo unspecified)	2130	1190	51300
COc1ccc(-c2c[n+](CC(=O)O[C@H]3C[C@H](C)CC[C@@H]3C(C)C)c3n2CCCCC3)cc1	450	404	16500
CCN1CCC(NC2CCCc3c2[nH]c2ccc([N+](=O)[O-])cc32)CC1 (stereo unspecified)	497	337	14500
CCOc1ccccc1-n1c(C(C)N(Cc2ccccc2)C(=O)Nc2cccc3ccccc23)nc2ccccc2c1=O (stereo unspecified)	855	242	> 10000
Cc1c(C(=O)Nc2ccccc2)sc2ncn(Cc3ccccc3Cl)c(=O)c12	5400	2420	> 100000
CCCOc1ccc(NC(=O)c2ccco2)cc1	1150	406	16900
CC[C@@]1(O)C[C@H](O[C@@H]2CC(N(C)C)[C@@H](O[C@@H]3C[C@@H](O)[C@@H](O[C@@H]4CCC(=O)[C@@H](C)O4)C(C)O3)[C@@H](C)O2)c2c(cc3c(c2O)C(=O)c2c(O)ccc(O)c2C3=O)[C@H]1C(=O)OC (stereo partly specified)	87.7	79.2	3370
O=C(Nc1ccccc1O)c1ccc(C(=O)N(C2CCCCC2)C2CCCCC2)cc1	1470	> 2450	> 100000
COc1ccc(/C=C(/C#N)C(=O)Nc2cccc3ccccc23)cc1	> 1160	> 241	> 10000
COc1ccccc1N1C(=N)SC(=Cc2ccc(N(C)C)cc2)C1=O	101	52.5	2220
CC(C)CC(=O)Nc1nnc(-c2ccc(Br)cc2)s1	> 9040	2330	> 100000
Cn1nc(-c2ccccc2)c2c(C(=O)C(F)(F)F)cc(C(=O)C(F)(F)F)c-2c1-c1ccccc1	8230	2330	> 100000
CCCCOc1ccc(NC2=NC3(CCCC3)NC(N)=N2)cc1	1090	2330	> 100000
CCN1/C(=C/C2=CC(=C/c3sc4ccccc4[n+]3CC)/CC(C)(C)C2)C=Cc2ccccc21	486	1030	42200
CCN(CC)CCNc1nc2cc(OC)c(OC)cc2c2nc(-c3ccccc3)nn12	1670	1800	77200
CN(C)c1ccc(N=Cc2ccc(N3CCOCC3)cc2)cc1	175	235	> 10000
CCn1ncc(CN2CCC(C(=O)Nc3ccccc3-c3cccc(OC)c3)CC2)c1C	> 12500	1160	47600
COc1ccc(/C=C2\SC(=Nc3ccccc3)NC2=O)cc1	342	233	> 10000
